# What was measured:
# [1] = biological target: T1, PfKRS (cytosolic lysyl tRNA synthetase) (Plasmodium falciparum, UniProt Q8IDJ8); assay: biochemical; set-up: PfKRS lysine activation, pyrophosphate release with BIOMOL Green absorbance at 650 nm; conditions: read-out: PfKRS pIC50 (converted)
# T1 construct: gene PF3D7_1350100
# Experimental: (§1) PfKRS assay wells contained PfKRS assay buffer (100 mM Hepes; pH 7.4, 100 mM NaCl, 20 mM MgCl2, 0.01% (v/v) Igepal and 1 mM DTT) plus 20 nM PfKRS, 200 μM ATP, 400 μM L-lysine, and 0.5 U/mL pyrophosphatase. HsKRS reactions contained HsKRS assay buffer (30 mM Tris; pH 8, 140 mM NaCl, 40 mM MgCl2, 30 mM KCl, 0.01% (v/v) Brij and 1 mM DTT) plus 400 nM HsKRS, 3.5 μM ATP, 6 μM L-lysine, and 0.5 U/mL pyrophosphatase. Assays were performed by adding 25 μL of assay buffer with enzyme to all assay wells, before the reaction was initiated with the addition of a 25 μL substrate mixture containing L-lysine, ATP, and pyrophosphatase (a substrate mix with L-lysine omitted was added to “no lysine” control wells on each assay plate). Following a 6 h (PfKRS) or 3 h (HsKRS) reaction at RT, the assay was stopped with the addition of 50 μL BIOMOL Green. The BIOMOL Green signal was allowed to develop for 30 min before the absorbance of each well was read at 650 nm using an EnVision multilabel plate reader (PerkinElmer Life Sciences) or a PheraStar plate reader (BMG). All [compound left out] dispensing steps were carried out using a Thermo Scientific WellMate dispenser (Matrix). To generate pIC50 data for hit compounds in the PfKRS or HsKRS assays, 10-point inhibitor dose–response curves were prepared in 384-well assay plates using an ECHO 550 acoustic dispenser (Labcyte). Following preparation of the inhibitor curves, assays were carried out as described above. ActivityBase from IDBS (version 8.0.5.4) was used for data processing and analysis, with percentage inhibition values determined relative to 100% inhibition (“no-lysine” control) and 0% inhibition control wells on each plate. All IC50 curve fitting was undertaken using ActivityBase XE (version 7.7.1) from IDBS. A four-parameter logistic dose–response curve was utilized (XLfit model 203) with prefit used for all four parameters.
# Target sequence in this assay (Q8IDJ8 1-583): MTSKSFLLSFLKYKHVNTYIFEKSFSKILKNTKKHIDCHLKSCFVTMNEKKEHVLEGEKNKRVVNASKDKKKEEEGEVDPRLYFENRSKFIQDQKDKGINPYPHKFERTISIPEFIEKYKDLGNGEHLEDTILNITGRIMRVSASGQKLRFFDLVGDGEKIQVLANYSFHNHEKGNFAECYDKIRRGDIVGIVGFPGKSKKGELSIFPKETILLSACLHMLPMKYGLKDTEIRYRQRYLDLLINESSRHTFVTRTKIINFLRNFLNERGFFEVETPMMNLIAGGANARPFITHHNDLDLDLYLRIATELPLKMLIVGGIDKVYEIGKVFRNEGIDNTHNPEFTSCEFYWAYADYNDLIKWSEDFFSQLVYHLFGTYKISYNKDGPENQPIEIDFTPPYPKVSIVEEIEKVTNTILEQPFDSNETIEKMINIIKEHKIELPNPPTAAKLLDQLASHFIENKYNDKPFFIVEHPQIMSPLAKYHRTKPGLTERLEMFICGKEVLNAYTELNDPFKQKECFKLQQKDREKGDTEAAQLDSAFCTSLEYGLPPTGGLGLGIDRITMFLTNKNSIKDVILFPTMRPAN
# HsKRS = biological target: T2, HsKRS (Homo sapiens, UniProt Q15046); assay: biochemical; set-up: HsKRS lysine activation, pyrophosphate release with BIOMOL Green absorbance at 650 nm; conditions: read-out: HsKRS pIC50 (converted)
# T2 construct: gene KARS1
# Experimental: as §1
# [2] = biological target: T1, PfKRS (cytosolic lysyl tRNA synthetase); assay: isothermal thermal proteome profiling at […] °C in P. falciparum lysate; type: cell-based
# Target sequence in this assay (Q8IDJ8 entry or part of it): as the sequence (Q8IDJ8 1-583) above
# T2 sequence (Q15046 whole entry): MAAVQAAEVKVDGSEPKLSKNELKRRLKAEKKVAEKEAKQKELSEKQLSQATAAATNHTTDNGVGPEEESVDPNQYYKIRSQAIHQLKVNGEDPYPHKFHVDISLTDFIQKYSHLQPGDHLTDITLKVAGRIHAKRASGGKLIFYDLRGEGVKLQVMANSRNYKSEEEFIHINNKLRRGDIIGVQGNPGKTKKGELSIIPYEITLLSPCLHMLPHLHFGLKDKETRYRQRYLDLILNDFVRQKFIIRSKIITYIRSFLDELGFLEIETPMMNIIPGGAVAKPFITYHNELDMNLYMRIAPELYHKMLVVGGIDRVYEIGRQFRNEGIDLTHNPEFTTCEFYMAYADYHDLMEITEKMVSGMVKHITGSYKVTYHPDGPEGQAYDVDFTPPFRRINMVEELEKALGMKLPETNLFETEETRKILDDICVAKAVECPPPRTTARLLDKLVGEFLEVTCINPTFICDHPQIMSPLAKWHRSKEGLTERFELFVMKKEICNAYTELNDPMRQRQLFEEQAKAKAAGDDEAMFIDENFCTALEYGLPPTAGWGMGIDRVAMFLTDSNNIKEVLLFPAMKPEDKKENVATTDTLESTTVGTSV
SMILES,IC50 [1] [nM],IC50 (HsKRS) [µM],isothermal thermal proteome profiling at 57 °C in P. falciparum lysate [2]
O=C(NCC1(O)CCC(F)(F)CC1)c1cc(=O)c2cc(F)ccc2o1 [DDD01510706],240,20,–
[N-]=[N+]=NCCOCCOCCOCCNC(=O)c1ccc(S(=O)(=O)Nc2cc(F)cc3c(=O)cc(C(=O)NCC4CCCCC4)oc23)cc1 [linker 1],22.4,43.7,–
O=C(NCC1CCCCC1)c1cc(=O)c2cc(F)cc(NS(=O)(=O)c3ccccc3)c2o1 [DDD02354914],11.7,6.31,–
C[C@H]1CCC[C@H](C[C@H]2Cc3cc(O)cc(O)c3C(=O)O2)O1 [cladosporin],47.9,> 100,The relative abundance of PfKRS was also significantly increased in lysates exposed to cladosporin
